Measurements: patent publication US10597388B2, “Pyridazinone herbicides” (FMC CORPORATION, priority 2014, dated 2020)

What was measured:
Assay in all cases: Test D controlled growth environment herbicide test, pre- and postemergence
Format in all cases: in vivo
[1] = test system: barley, winter (winter barley, Hordeum vulgare)
Excerpt: (§1) Seeds of plant species selected from bluegrass (annual bluegrass, Poa annua), blackgrass (Alopecurus myosuroides), Canada thistle (Cirsium arvense), canarygrass (Phalaris minor), chickweed (common chickweed, Stellaria media), geranium, cutleaf (cutleaf geranium, Geranium dissectum), galium (catchweed bedstraw, Galium aparine), bromegrass, downy (downy bromegrass, Bromus tectorum), field poppy (Papaver rhoeas), field violet (Viola arvensis), foxtail, green (green foxtail, Setaria viridis), deadnettle (henbit deadnettle, Lamium amplexicaule), ryegrass, Italian (Italian ryegrass, Lolium multiflorum), kochia (Kochia scoparia), lambsquarters (Chenopodium album), oilseed rape (Brassica napus), pigweed (Amaranthus retroflexus), chamomile (scentless chamomile, Matricaria inodora), Russian thistle (Salsola kali), speedwell (bird's-eye speedwell, Veronica persica), barley, spring (spring barley, Hordeum vulgare), wheat, spring (spring wheat, Triticum aestivum), buckwheat, wild (wild buckwheat, Polygonum convolvulus), mustard, wild (wild mustard, Sinapis arvensis), oat, wild (wild oat, Avena fatua), radish, wild (wild radish, Raphanus raphanistrum), windgrass (Apera spica-venti), barley, winter (winter barley, Hordeum vulgare), and wheat, winter (winter wheat, Triticum aestivum) were planted into a silt loam soil and treated preemergence with test chemicals formulated in a non-phytotoxic solvent mixture which included a surfactant.
(§2) At the same time, these species were planted in pots containing Redi-Earth® planting medium (Scotts Company, 14111 Scottslawn Road, Marysville, Ohio 43041) comprising spaghnum peat moss, vermiculite, wetting agent and starter nutrients and treated with postemergence applications of the test chemicals formulated in the same manner. Plants ranged in height from 2 to 18 cm (1- to 4-leaf stage). Treated plants and controls were maintained in a controlled growth environment for 14 to 21 d after which time all species were compared to controls and visually evaluated. Plant response ratings, summarized in Table D, are based on a scale of 0 to 100 where 0 is no effect and 100 is complete control. A dash (-) response means no test result.

[2] = test system: blackgrass (Alopecurus myosuroides)
Excerpt: as §1, §2

[3] = test system: bromegrass, downy (downy bromegrass, Bromus tectorum)
Excerpt: as §1, §2

[4] = test system: chamomile (scentless chamomile, Matricaria inodora)
Excerpt: as §1, §2

[5] = test system: chickweed (common chickweed, Stellaria media)
Excerpt: as §1, §2

[6] = test system: field poppy (Papaver rhoeas)
Excerpt: as §1, §2

[7] = test system: foxtail, green (green foxtail, Setaria viridis)
Excerpt: as §1, §2

[8] = test system: lambsquarters (Chenopodium album)
Excerpt: as §1, §2

[9] = test system: mustard, wild (wild mustard, Sinapis arvensis)
Excerpt: as §1, §2

[10] = test system: oat, wild (wild oat, Avena fatua)
Excerpt: as §1, §2

[11] = test system: pigweed (Amaranthus retroflexus)
Excerpt: as §1, §2

[12] = test system: wheat, spring (spring wheat, Triticum aestivum)
Excerpt: as §1, §2

[13] = test system: wheat, winter (winter wheat, Triticum aestivum)
Excerpt: as §1, §2

[14] = test system: windgrass (Apera spica-venti)
Excerpt: as §1, §2

[15] = Postemergence, 31 g ai/ha, scale 0 to 100 (0 no effect, 100 complete control)
[16] = Postemergence, 125 g ai/ha, visual rating on scale 0 (no effect) to 100 (complete control), 14 to 21 d
[17] = Postemergence, 250 g ai/ha, scale 0 to 100 (0 no effect, 100 complete control)
[18] = Preemergence, 62 g ai/ha, scale 0 to 100 (0 no effect, 100 complete control)
[19] = Preemergence, 125 g ai/ha, scale 0 to 100 (0 no effect, 100 complete control)
[20] = Preemergence, 250 g ai/ha, scale 0 to 100, 0 no effect, 100 complete control
[21] = postemergence, 62 g ai/ha, scale 0 to 100, 0 no effect, 100 complete control

SMILES: Cc1nn(C)c(=O)c(-c2ccc(F)c3ccccc23)c1O [Compound 41]
- Plant response rating, Barley, Winter [1, 15]: 0
- Plant response rating, Barley, Winter [1, 16]: 5
- Plant response rating, Barley, Winter [1, 17]: 35
- Plant response rating (scale of 0 to 100), Barley, Winter ([1]; Preemergence, 31 g ai/ha): 0
- Plant response rating, Barley, Winter [1, 18]: 20
- Plant response rating, Barley, Winter [1, 19]: 25
- Barley, Winter plant response rating [1, 20]: 30
- Plant response rating, Barley, Winter [1, 21]: 5
- Blackgrass plant response rating [2, 15]: 55
- Plant response rating, Blackgrass [2, 16]: 70
- Plant response rating, Blackgrass [2, 17]: 75
- Plant response rating (scale of 0 to 100), Blackgrass ([2]; Preemergence, 31 g ai/ha): 70
- Plant response rating, Blackgrass [2, 18]: 75
- Plant response rating, Blackgrass [2, 19]: 80
- Blackgrass plant response rating [2, 20]: 80
- Plant response rating, Blackgrass [2, 21]: 65
- Bromegrass, Downy plant response rating [3, 15]: 10
- Plant response rating, Bromegrass, Downy [3, 16]: 35
- Plant response rating, Bromegrass, Downy [3, 17]: 45
- Plant response rating (scale of 0 to 100), Bromegrass, Downy ([3]; Preemergence, 31 g ai/ha): 50
- Plant response rating, Bromegrass, Downy [3, 18]: 55
- Plant response rating, Bromegrass, Downy [3, 19]: 70
- Plant response rating, Bromegrass, Downy [3, 20]: 80
- Plant response rating, Bromegrass, Downy [3, 21]: 20
- Chamomile plant response rating [4, 15]: 75
- Plant response rating, Chamomile [4, 16]: 80
- Plant response rating, Chamomile [4, 17]: 100
- Plant response rating, Chamomile [4, 21]: 75
- Chickweed plant response rating [5, 15]: 98
- Plant response rating, Chickweed [5, 16]: 95
- Plant response rating, Chickweed [5, 17]: 100
- Plant response rating (scale of 0 to 100), Chickweed ([5]; Preemergence, 31 g ai/ha): 90
- Plant response rating, Chickweed [5, 18]: 95
- Plant response rating, Chickweed [5, 19]: 95
- Plant response rating, Chickweed [5, 20]: 95
- Plant response rating, Chickweed [5, 21]: 98
- Field Poppy plant response rating [6, 15]: 55
- Plant response rating, Field Poppy [6, 16]: 75
- Plant response rating, Field Poppy [6, 17]: 95
- Plant response rating (scale of 0 to 100), Field Poppy ([6]; Preemergence, 31 g ai/ha): 95
- Plant response rating, Field Poppy [6, 18]: 95
- Plant response rating, Field Poppy [6, 20]: 95
- Plant response rating, Field Poppy [6, 21]: 80
- Foxtail, Green plant response rating [7, 15]: 45
- Plant response rating, Foxtail, Green [7, 16]: 50
- Plant response rating, Foxtail, Green [7, 17]: 65
- Plant response rating (scale of 0 to 100), Foxtail, Green ([7]; Preemergence, 31 g ai/ha): 45
- Plant response rating, Foxtail, Green [7, 18]: 80
- Plant response rating, Foxtail, Green [7, 19]: 100
- Plant response rating, Foxtail, Green [7, 20]: 100
- Plant response rating, Foxtail, Green [7, 21]: 55
- Lambsquarters plant response rating [8, 15]: 70
- Plant response rating, Lambsquarters [8, 16]: 75
- Plant response rating, Lambsquarters [8, 17]: 85
- Plant response rating (scale of 0 to 100), Lambsquarters ([8]; Preemergence, 31 g ai/ha): 25
- Plant response rating, Lambsquarters [8, 18]: 100
- Plant response rating, Lambsquarters [8, 19]: 100
- Plant response rating, Lambsquarters [8, 20]: 100
- Plant response rating, Lambsquarters [8, 21]: 65
- Mustard, Wild plant response rating [9, 15]: 90
- Plant response rating, Mustard, Wild [9, 16]: 100
- Plant response rating, Mustard, Wild [9, 17]: 100
- Plant response rating (scale of 0 to 100), Mustard, Wild ([9]; Preemergence, 31 g ai/ha): 70
- Plant response rating, Mustard, Wild [9, 18]: 90
- Plant response rating, Mustard, Wild [9, 19]: 95
- Plant response rating, Mustard, Wild [9, 20]: 95
- Plant response rating, Mustard, Wild [9, 21]: 100
- Oat, Wild plant response rating [10, 15]: 70
- Plant response rating, Oat, Wild [10, 16]: 85
- Plant response rating, Oat, Wild [10, 17]: 85
- Plant response rating (scale of 0 to 100), Oat, Wild ([10]; Preemergence, 31 g ai/ha): 85
- Plant response rating, Oat, Wild [10, 18]: 90
- Plant response rating, Oat, Wild [10, 19]: 90
- Plant response rating, Oat, Wild [10, 20]: 95
- Plant response rating, Oat, Wild [10, 21]: 80
- Pigweed plant response rating [11, 15]: 75
- Plant response rating, Pigweed [11, 16]: 80
- Plant response rating, Pigweed [11, 17]: 85
- Plant response rating (scale of 0 to 100), Pigweed ([11]; Preemergence, 31 g ai/ha): 25
- Plant response rating, Pigweed [11, 18]: 75
- Plant response rating, Pigweed [11, 19]: 100
- Plant response rating, Pigweed [11, 20]: 100
- Plant response rating, Pigweed [11, 21]: 80
- Wheat, Spring plant response rating [12, 15]: 15
- Plant response rating, Wheat, Spring [12, 16]: 30
- Plant response rating, Wheat, Spring [12, 17]: 40
- Plant response rating (scale of 0 to 100), Wheat, Spring ([12]; Preemergence, 31 g ai/ha): 40
- Plant response rating, Wheat, Spring [12, 18]: 55
- Plant response rating, Wheat, Spring [12, 19]: 70
- Plant response rating, Wheat, Spring [12, 20]: 85
- Plant response rating, Wheat, Spring [12, 21]: 20
- Wheat, Winter plant response rating [13, 15]: 10
- Plant response rating, Wheat, Winter [13, 16]: 25
- Plant response rating, Wheat, Winter [13, 17]: 35
- Plant response rating (scale of 0 to 100), Wheat, Winter ([13]; Preemergence, 31 g ai/ha): 10
- Plant response rating, Wheat, Winter [13, 18]: 20
- Plant response rating, Wheat, Winter [13, 19]: 45
- Plant response rating, Wheat, Winter [13, 20]: 75
- Plant response rating, Wheat, Winter [13, 21]: 20
- Windgrass plant response rating [14, 15]: 40
- Plant response rating, Windgrass [14, 16]: 60
- Plant response rating, Windgrass [14, 17]: 75
- Plant response rating (scale of 0 to 100), Windgrass ([14]; Preemergence, 31 g ai/ha): 70
- Plant response rating, Windgrass [14, 18]: 75
- Plant response rating, Windgrass [14, 19]: 80
- Plant response rating, Windgrass [14, 20]: 95
- Plant response rating, Windgrass [14, 21]: 55
